The values that follow come from patent US5354865A, “Phenylmethyl derivatives having lipoxygenase inhibitory activity” (Abbott Laboratories, priority 1992, dated 1994).

The inhibition is the relative decrease from the control value, in per cent. Usually IC50 stands for the concentration that inhibits the measured activity by half.

In the first assay the target is T1, 5-Lipoxygenase (Homo sapiens, UniProt P09917).
T1 construct: from tissue; host or cells: human heparinized whole blood (endogenous enzyme of its blood cells)
T1 sequence (P09917 1-674): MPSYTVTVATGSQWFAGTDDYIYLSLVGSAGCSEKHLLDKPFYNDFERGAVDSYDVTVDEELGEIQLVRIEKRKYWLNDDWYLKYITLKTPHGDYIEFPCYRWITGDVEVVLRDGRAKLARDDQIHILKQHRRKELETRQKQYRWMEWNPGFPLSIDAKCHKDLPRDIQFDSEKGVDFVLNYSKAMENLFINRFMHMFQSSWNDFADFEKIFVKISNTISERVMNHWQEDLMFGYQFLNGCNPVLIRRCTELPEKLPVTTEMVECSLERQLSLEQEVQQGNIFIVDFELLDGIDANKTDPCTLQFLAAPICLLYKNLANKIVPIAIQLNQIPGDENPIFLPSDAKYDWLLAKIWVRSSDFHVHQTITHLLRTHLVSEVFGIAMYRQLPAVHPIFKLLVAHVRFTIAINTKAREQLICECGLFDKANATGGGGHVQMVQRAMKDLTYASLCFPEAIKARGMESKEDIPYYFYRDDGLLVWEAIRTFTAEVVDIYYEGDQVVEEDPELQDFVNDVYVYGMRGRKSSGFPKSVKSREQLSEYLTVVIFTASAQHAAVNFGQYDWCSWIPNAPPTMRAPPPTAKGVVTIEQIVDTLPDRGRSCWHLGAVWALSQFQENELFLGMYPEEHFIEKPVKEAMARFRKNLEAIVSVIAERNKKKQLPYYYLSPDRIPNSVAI
Kind of assay: Inhibition of leukotriene biosynthesis: calcium ionophore A23187-induced LTB4 biosynthesis in human whole blood (RIA). The class given is cell-based. The settings on record: @ 0.20 μM; human whole blood, A23187; read-out: Inhibition of stimulated LTB4 formation in human whole blood. On the procedure: Inhibition of leukotriene biosynthesis was evaluated in an assay, involving calcium ionophore-induced LTB4 biosynthesis expressed human whole blood. Human heparinized whole blood was preincubated with test compounds or vehicle for 15 min at 37° C. followed by calcium ionophore A23187 challenge (final concentration of 8.3 μM) and the reaction terminated after 30 min by adding two volumes of methanol containing prostaglandin B2 as an internal recovery standard. The methanol extract was analyzed for LTB4 using a commercially available radioimmunoassay.
On to `CON=C(c1cc(F)cc(OCc2ccc3c(ccc(=O)n3C)c2)c1)C1CCOCC1` [Example 15, E- and Z-O-methyl-[(3-((1,2-dihydro-1-methyl-2-oxoquinolin-6-yl)methoxy)-5-fluorophen-1-yl)oximinomethyl]tetrahydropyran], for which the inhibition at 0.2 µM was 99.6%.

The assay is the same for the next values; noted with them: @ 0.39 μM; human whole blood, A23187; read-out: Inhibition of stimulated LTB4 formation in human whole blood.
As for `Cn1c(=O)ccc2cc(COc3cccc(C(=NO)C4CCOCC4)c3)ccc21` [Example 11, E- and Z-4-[(3-((1,2-dihydro-1-methyl-2-oxoquinolin-6-yl)methoxy)phen-1-yl)oximinomethyl]tetrahydropyran], the inhibition at 0.39 µM amounted to 73%. Turning to `CON=C(c1cccc(OCc2ccc3ccccc3c2)c1)C1CCOCC1` [Example 7, E- and Z-O-methyl-4-[(3-(naphth-2-yl)methoxyphen-1-yl)oximinomethyl]tetrahydropyran], the inhibition at 0.39 µM turned out to be 68%.

The same assay, now with this note: @ 0.78 μM; human whole blood, A23187; read-out: Inhibition of stimulated LTB4 formation in human whole blood.
`CON=C(c1cccc(OCc2ccc3c(ccc(=O)n3C)c2)c1)C1CCOCC1` [Example 12, E- and Z-O-Methyl-4-[(3-((1,2-dihydro-1-methyl-2-oxoquinolin-6-yl)methoxy)phen-1-yl)oximinomethyl]tetrahydropyran]: the inhibition at 0.78 µM came out at 99%. Regarding `Cn1c(=O)ccc2cc(COc3cc(F)cc(C(=NO)C4CCOCC4)c3)ccc21` [Example 16, E- and Z-4-[(3-((1,2-dihydro-1-methyl-2-oxoquinolin-6-yl)methoxy)-5-fluorophen-1-yl) oximinomethyl]tetrahydropyran], the inhibition at 0.78 µM worked out at 98%.

Still in this assay, the particulars now being: human heparinized whole blood, 15 min preincubation at 37° C., A23187 8.3 μM, 30 min; LTB4 by RIA; read-out: In vitro inhibitory potency against 5-lipoxygenase from stimulated LTB4 formation in human whole blood, IC50.
Turning to `CON=C(c1cc(F)cc(OCc2ccc3ccccc3c2)c1)C1(C)COC1` [Example 17, E- and Z-O-methyl-3-methyl-3-[(3-((naphth-2-yl)methoxy)-5-fluorophen-1-yl)oximinomethyl]oxetane], the IC50 stood at 2900 nM. The same measure, in the same setting: with `COC1(Cc2cccc(OCc3ccc4ccccc4c3)c2)CCOCC1` [Example 14, 4-methoxy-4-[(3-((naphth-2-yl)methoxy)phen-1-yl)methyl]tetrahydropyran] the figure was 2000 nM; with `COC(c1cccc(OCc2ccc3c(ccc(=O)n3C)c2)c1)C1CCOCC1` (centres unmarked) [Example 9, 4-[(3-(1,2-dihydro-1-methyl-2-oxoquinolin-6-yl)methyloxyphen-1-yl)methoxymethyl]tetrahydropyran], 710 nM; with `NN=C(c1cccc(OCc2ccc3ccccc3c2)c1)C1CCOCC1` [Example 6], 2400 nM. On to `COCOC(c1cccc(OCc2ccc3c(ccc(=O)n3C)c2)c1)C1CCOCC1` (centres unmarked) [Example 10, 4-[(3-((1,2-dihydro-1-methyl-2-oxoquinolin-6-yl)methoxy)phen-1-yl)methoxymethoxymethyl]tetrahydropyran], for which the IC50 was 940 nM. For the molecule `CC1(C(=NO)c2cc(F)cc(OCc3ccc4ccccc4c3)c2)COC1` [Example 18, E- and Z-3-methyl-3-[(3-((naphth-2-yl)methoxy)-5-fluorophen-1-yl)oximinomethyl]oxetane], the IC50 was 5200 nM.

`OC(c1cccc(OCc2ccc3ccccc3c2)c1)C1CCOCC1` (centres unmarked) [Example 1, 4-[(3-(naphth-2-yl)methoxyphen-1-yl)hydroxymethyl]tetrahydropyran]: the IC50 was 3500 nM. For `COC(c1cccc(OCc2ccc3ccccc3c2)c1)C1CCOCC1` (centres unmarked) [Example 2, 4-[(3-(naphth-2-yl)methoxyphen-1-yl)methoxymethyl]tetrahydropyran], the IC50 was 730 nM. On the same count and under the same terms, next, `CCON=C(c1cccc(OCc2ccc3c(ccc(=O)n3C)c2)c1)C1CCOCC1` [Example 13, E- and Z-O-Ethyl-4-[(3-((1,2-dihydro-1-methyl-2-oxoquinolin-6-yl)methoxy)phen-1-yl)oximinomethyl]tetrahydropyran]: 830 nM.
